Experiments:
[1] = Light stability test (colour change over 3 months); assay type: physicochemical; conditions: for Discoloration: installed in the place where light was shut off
Text: The antimicrobial monomers manufactured in Examples 9 and 10 and the antimicrobial acrylic copolymers manufactured in Examples 17 to 23 were used as samples. 3 g of each sample were respectively put in lucid glass test tubes, which were then placed under a direct ray of light. Also, according to the same method, the samples were collected in lucid glass test tubes which were then sealed with aluminum foil and installed in a place where indoor light was shut off.

E. coli (KCTC 1682) = assay: Strain reduction rate determination (shake flask method); assay type: cell-based; conditions: for Right After Inoculation (number of bacteria): 5 minutes after inoculation, 0.1 g powder or 2 ml stock solution; for After 24 hours (number of bacteria): 24 hours incubation with agitation; for Strain Reduction Rate: vs control after 24 hours
Protocol: (§1) The antimicrobial test was conducted by strain reduction rate determination (shake flask method). As the samples, 0.1 g of each of the compounds of Examples 9, 13, 15, and 18 to 23 was used in the form of powder, and in the case of Examples 28 to 31, 2 ml of their stock solution was used. The buffer solutions used in the antibacterial test were those prepared by dissolving each of 28.39 g of […] and 23.99 g of NaH2PO4 in 1000 ml of purified water, blending them in the volume of 72 ml and 28 ml respectively, adding 5 g of NaCl thereto, and then pouring purified water thereinto to adjust their total volume to 1000 ml. As the control, the same bacterial strains, to which no samples were added, were used. The samples were mixed with bacterial strain inocula (5.0×105), which were then incubated while agitating for 24 hours and then incubated on agar media. The reduction rate of strain number was determined by the following Equation 1. (Reduction Rate %)={(A−B)/A}×100 [Equation 1]
(§2) A: Number of Bacteria in Control after 24 Hours
(§3) B: Number of Bacteria in Sample after 24 Hours
(§4) In Table 6 above, “right after inoculation” refers to after 5 minutes from the time the bacterial strains were inoculated.

S. aureus (KCTC 1621) = assay: as above; assay type: cell-based; conditions: for Right After Inoculation (number of bacteria): 5 minutes after inoculation, 0.1 g powder or 2 ml stock solution; for After 24 hours (number of bacteria): 24 hours incubation with agitation; for Strain Reduction Rate: vs control after 24 hours
Protocol: as §1, §2, §3, §4

| Colour, Four Weeks Later ([1]; Direct Ray of Light) | Colour, Initial ([1]; Direct Ray of Light) | Colour, Ten Weeks Later ([1]; Direct Ray of Light) | Colour, Twelve Weeks Later ([1]; Direct Ray of Light) | Colour, Two Weeks Later ([1]; Direct Ray of Light) | Colour, Eight Weeks Later ([1]; Light Shut Off) | Colour, Four Weeks Later ([1]; Light Shut Off) | Colour, Initial ([1]; Light Shut Off) | Colour, Six Weeks Later ([1]; Light Shut Off) | Colour, Ten Weeks Later ([1]; Light Shut Off) | Colour, Twelve Weeks Later ([1]; Light Shut Off) | Colour, Two Weeks Later ([1]; Light Shut Off) | Discoloration [1] | Compound | Right After Inoculation (number of bacteria) (E. coli (KCTC 1682)) | After 24 hours (number of bacteria) (E. coli (KCTC 1682)) | Strain Reduction Rate (E. coli (KCTC 1682)) [%] | Right After Inoculation (number of bacteria) (S. aureus (KCTC 1621)) | After 24 hours (number of bacteria) (S. aureus (KCTC 1621)) | Strain Reduction Rate (S. aureus (KCTC 1621)) [%] |
| --- | --- | --- | --- | --- | --- | --- | --- | --- | --- | --- | --- | --- | --- | --- | --- | --- | --- | --- | --- |
| orange | white | brown | brown | yellow | white | white | white | white | white | white | white | not discolored | C=C(C)C(=O)OCC(O)CN1CCN(c2cc3c(cc2F)c(=O)c(C(=O)O)cn3CC)CC1 (centres unmarked) [Example 10, 1-ethyl-6-fluoro-1,4-dihydro-7-[4-(2-hydroxy-6-methyl-4-oxa-5-oxo-6-heptenyl)-1-piperazinyl]-4-oxo-3-quinoline carboxylic acid] | – | – | – | – | – | – |
| – | – | – | – | – | – | – | – | – | – | – | – | – | C=C(C)C(=O)N1CCN(c2cc3c(cc2F)c(=O)c(C(=O)O)cn3C2CC2)CC1 [Example 13, 1-cyclopropyl-6-fluoro-1,4-dihydro-7-[4-(2-methyl-1-oxo-2-propenyl)-1-piperazinyl]-4-oxo-3-quinoline carboxylic acid] | not detected | not detected | 100 | not detected | not detected | 100 |
| orange | white | brown | brown | yellow | white | white | white | white | white | white | white | not discolored | C=C(C)C(=O)OCC(O)CN1CCN(c2cc3c(cc2F)c(=O)c(C(=O)O)cn3C2CC2)CC1 (centres unmarked) [Example 9, 1-cyclopropyl-6-fluoro-1,4-dihydro-7-[4-(2-hydroxy-6-methyl-4-oxa-5-oxo-6-heptenyl)-1-piperazinyl]-4-oxo-3-quinoline carboxylic acid] | not detected | not detected | 100 | not detected | not detected | 100 |

Reference: patent publication US7777033B2, “Monomer with anti-microbial character, polymer using the same, and manufacturing method thereof” (Micro Science Tech Co., Ltd., priority 2005, dated 2010)
